# Results as given in patent US9636427B2, “Process for preparing a pharmaceutical formulation of contrast agents” (GUERBET, priority 2008, dated 2017).
# Experiment: Lethal dose (LD50) of free macrocyclic chelates, excipients X[X',L] and Gd chelates, table 1 of U.S. Pat. No. 7,385,041
# Settings: times better LD50 than free DOTA
row,Structure (SMILES),LD50 of Na2[Ca-DOTA] relative to free DOTA
1,O=C([O-])CN1CCN(CC(=O)[O-])CCN(CC(=O)[O-])CCN(CC(=O)[O-])CC1.[Ca+2].[Na+].[Na+] [Na2 [Ca-DOTA]],at least 40 times

# Experiment: not given
# Settings: values from table 1 of U.S. Pat. No. 7,385,041; cited from earlier work
row,Structure (SMILES),Letal dose (LD 50) [mmol/kg]
1,O=C([O-])CN1CCNCCN(CC(=O)[O-])CCN(CC(=O)[O-])CC1.O=C([O-])CN1CCNCCN(CC(=O)[O-])CCN(CC(=O)[O-])CC1.[Ca+2].[Ca+2].[Ca+2] [Ca[Ca-DO3A]2.],1.6
2,CC(O)CN1CCN(CC(=O)[O-])CCN(CC(=O)[O-])CCN(CC(=O)[O-])CC1.CC(O)CN1CCN(CC(=O)[O-])CCN(CC(=O)[O-])CCN(CC(=O)[O-])CC1.[Ca+2].[Ca+2].[Ca+2] (stereo not drawn) [Ca[Ca-HPDO3A]2],1.3
3,O=C(O)CN1CCNCCN(CC(=O)O)CCN(CC(=O)O)CC1 [DO3A],0.12
4,"O=C(O)CN1CCN(CC(=O)O)CCN(CC(=O)O)CCN(CC(=O)O)CC1 [DOTA, 1,4,7,10-Tetraazacyclododecane-N,N′,N″,N″′-tetraacetic acid]",0.18
5,O=C([O-])CN1CCN(CC(=O)[O-])CCN(CC(=O)O)CCN(CC(=O)[O-])CC1.[Gd+3] [DOTA-Gd],14
6,CC(O)CN1CCN(CC(=O)[O-])CCN(CC(=O)[O-])CCN(CC(=O)[O-])CC1.[Gd+3] (stereo not drawn) [HP-DO3A-Gd],12
7,CC(O)CN1CCN(CC(=O)O)CCN(CC(=O)O)CCN(CC(=O)O)CC1 (stereo not drawn) [HP-DO3A],0.11
8,O=C([O-])CN1CCN(CC(=O)[O-])CCN(CC(=O)[O-])CCN(CC(=O)[O-])CC1.[Ca+2].[Na+].[Na+] [Na2 [Ca-DOTA]],>7
